Results taken from patent US6706663B2, “Herbicidal 3-heterocyclic substituted benzisothiazole and benzisoxazole compounds” (Wyeth, priority 2000, dated 2004).

What was measured:
[1] = test system: TRZAWR (Wheat, Winter, cv Riband); experiment: Preemergence herbicidal evaluation; format: in vivo, Triticum aestivum; settings: rated 4-5 weeks after treatment
Method in brief: (§1)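 Visual 0–9 rating versus control (stand, vigor, malformation, size, chlorosis, overall appearance), scored four to five weeks post-treatment. Preemergence spray of aqueous acetone solution onto freshly seeded soil cups; plants grown under conventional greenhouse care.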

ZEAMX (Corn, Field) = experiment: Preemergence herbicidal evaluation; format: in vivo, Zea mays, L.; settings: rated 4-5 weeks after treatment
[2] = test system: TRZAWR (Wheat, Winter, cv Riband); experiment: Postemergence herbicidal evaluation; format: in vivo, Triticum aestivum; settings: postemergence
Method in brief: (§2)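 Seedlings grown about two weeks in flats, sprayed, then kept under standard greenhouse care. Rated visually 4–5 weeks after treatment on a 0–9 scale (stand, vigour, malformation, size, chlorosis, overall appearance) relative to untreated control; repeat tests averaged.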

[3] = test system: GLXMAW (Soybean, Williams); experiment: Preemergence herbicidal evaluation; format: in vivo, Glycine max, (L.) Merr. cv Williams; settings: rated 4-5 weeks after treatment
[4] = test system: ABUTH (Abutilon theophrasti); experiment: Preemergence herbicidal evaluation; format: in vivo, Medic.; settings: rated 4-5 weeks after treatment
[5] = test system: CASOB (Cassia obtusifolia); experiment: Postemergence herbicidal evaluation; format: in vivo, L.; settings: postemergence
Method in brief: as §2

[6] = test system: CHEAL (Chenopodium album); experiment: Postemergence herbicidal evaluation; format: in vivo, L.; settings: postemergence
Method in brief: as §2

[7] = test system: AMBEL (Ambrosia artemisifolia); experiment: Postemergence herbicidal evaluation; format: in vivo, L.; settings: postemergence
Method in brief: as §2

GALAP (Galium aparine) = experiment: Preemergence herbicidal evaluation; format: in vivo; settings: rated 4-5 weeks after treatment
Method in brief: as §1

SMILES | Preemergence herbicidal rating TRZAWR ([1]; Rate 0.0620 kg/ha) | Preemergence herbicidal rating TRZAWR ([1]; Rate 0.1250 kg/ha) | Preemergence herbicidal rating TRZAWR ([1]; Rate 0.2500 kg/ha) | Preemergence herbicidal rating ZEAMX (ZEAMX (Corn, Field); Rate 0.0620 kg/ha) | Preemergence herbicidal rating ZEAMX (ZEAMX (Corn, Field); Rate 0.1250 kg/ha) | Preemergence herbicidal rating ZEAMX (ZEAMX (Corn, Field); Rate 0.2500 kg/ha) | TRZAWR herbicidal rating ([2]; rate 0.0320 kg/ha) | TRZAWR herbicidal rating ([2]; rate 0.0620 kg/ha) | Preemergence herbicidal rating GLXMAW ([3]; Rate 0.0620 kg/ha) | Preemergence herbicidal rating GLXMAW ([3]; Rate 0.1250 kg/ha) | Preemergence herbicidal rating ABUTH ([4]; Rate 0.0620 kg/ha) | Preemergence herbicidal rating ABUTH ([4]; Rate 0.1250 kg/ha) | CASOB herbicidal rating ([5]; rate 0.0320 kg/ha) | CASOB herbicidal rating ([5]; rate 0.0620 kg/ha) | CHEAL herbicidal rating ([6]; rate 0.0320 kg/ha) | CHEAL herbicidal rating ([6]; rate 0.0620 kg/ha) | AMBEL herbicidal rating ([7]; rate 0.0320 kg/ha) | AMBEL herbicidal rating ([7]; rate 0.0620 kg/ha) | Preemergence herbicidal rating GALAP (GALAP (Galium aparine); Rate 0.0620 kg/ha) | Preemergence herbicidal rating GALAP (GALAP (Galium aparine); Rate 0.1250 kg/ha) | other results
CC1=CC(C)(C)OC(c2nsc3ccc(-n4c(=O)cc(C(F)(F)F)n(C)c4=O)cc23)C1 (stereo not drawn) [Compound 65, 3-[3-(3,6-dihydro-4,6,6-trimethyl-2H-pyran-2-yl)-1,2-benzisothiazol-5-yl]-1-methyl-6-(trifluoromethyl)uracil] | 5.0 | 7.0 | 9.0 | 7.0 | 8.0 | 9.0 | 4.0 | 5.0 | 2.0 | 3.0 | 9.0 | 9.0 | 4.0 | 5.0 | 7.0 | 9.0 | 9.0 | 9.0 | 5.0 | 7.0 | Preemergence herbicidal rating GLXMAW ([3]; Rate 0.2500 kg/ha): 6.0; Preemergence herbicidal rating ABUTH ([4]; Rate 0.2500 kg/ha): 9.0; Preemergence herbicidal rating GALAP (GALAP (Galium aparine); Rate 0.2500 kg/ha): 7.0
Cn1c(C(F)(F)F)cc(=O)n(-c2ccc3snc(C4OCC5(CO4)CO5)c3c2)c1=O (stereo not drawn) [Compound 70, 1-methyl-3-(3-spiro[m-dioxane-5,2′-oxiran]-2-yl-1,2-benzisothiazol-5-yl)-6-(trifluoromethyl)uracil] | 3.0 | 7.0 | – | 2.0 | 9.0 | – | 5.0 | 5.5 | 3.0 | 9.0 | 9.0 | 9.0 | 5.0 | 5.0 | 9.0 | 9.0 | 9.0 | 9.0 | 7.0 | 9.0 | –
Cn1c(C(F)(F)F)cc(=O)n(-c2ccc3snc(C4OC(=O)C(C)(C)O4)c3c2)c1=O (stereo not drawn) [Compound 71, 3-[3-(4,4-dimethyl-5-oxo-1,3-dioxolan-2-yl)-1,2-benzisothiazol-5-yl]-1-methyl-6-(trifluoromethyl)uracil] | 4.0 | 7.0 | 8.0 | 5.5 | 8.0 | 8.5 | 3.0 | 3.5 | 2.5 | 4.5 | 8.0 | 9.0 | 0.0 | 2.0 | 6.0 | 9.0 | 7.0 | 6.0 | 6.0 | 9.0 | Preemergence herbicidal rating GLXMAW ([3]; Rate 0.2500 kg/ha): 6.0; Preemergence herbicidal rating ABUTH ([4]; Rate 0.2500 kg/ha): 9.0; Preemergence herbicidal rating GALAP (GALAP (Galium aparine); Rate 0.2500 kg/ha): 9.0
Cc1sccc1-c1nsc2ccc(-n3c(=O)cc(C(F)(F)F)n(C)c3=O)cc12 [Compound 68, 2,4(1H,3H)-pyrimidinedione, 1-methyl-3-[3-(2-methyl-3-thienyl)-1,2-benzisothiazol-5-yl]-6-(trifluoromethyl)-] | 2.0 | 5.0 | 7.0 | 2.5 | 4.0 | 6.0 | 4.0 | 4.5 | 1.5 | 3.0 | 8.5 | 9.0 | 5.0 | 6.0 | 9.0 | 9.0 | 9.0 | 9.0 | 7.0 | 6.0 | Preemergence herbicidal rating GLXMAW ([3]; Rate 0.2500 kg/ha): 7.5; Preemergence herbicidal rating ABUTH ([4]; Rate 0.2500 kg/ha): 9.0; Preemergence herbicidal rating GALAP (GALAP (Galium aparine); Rate 0.2500 kg/ha): 9.0
Cn1c(C(F)(F)F)cc(=O)n(-c2ccc3snc(C4OCC(CO)O4)c3c2)c1=O (stereo not drawn) [Compound 73, 3-[3-[4-(hydroxymethyl)-1,3-dioxolan-2-yl]-1,2-benzisothiazol-5-yl]-1-methyl-6-(trifluoromethyl)uracil] | 4.0 | 6.0 | 8.0 | 6.5 | 9.0 | 9.0 | 3.5 | 4.0 | 4.0 | 7.0 | 9.0 | 9.0 | 3.0 | 4.0 | 9.0 | 9.0 | 9.0 | 9.0 | 8.0 | 8.0 | Preemergence herbicidal rating GLXMAW ([3]; Rate 0.2500 kg/ha): 8.0; Preemergence herbicidal rating ABUTH ([4]; Rate 0.2500 kg/ha): 9.0; Preemergence herbicidal rating GALAP (GALAP (Galium aparine); Rate 0.2500 kg/ha): 9.0
Cn1c(C(F)(F)F)cc(=O)n(-c2ccc3snc(-c4sccc4CBr)c3c2)c1=O [Compound 80, 3-[3-[3-(bromomethyl)-2-thienyl]-1,2-benzisothiazol-5-yl]-1-methyl-6-(trifluoromethyl)uracil] | 0.0 | 0.0 | 2.0 | 0.5 | 1.5 | 2.5 | 3.0 | 3.5 | 0.5 | 0.5 | 4.0 | 9.0 | 5.0 | 5.0 | 9.0 | 9.0 | 7.0 | 9.0 | 4.0 | 5.0 | Preemergence herbicidal rating GLXMAW ([3]; Rate 0.2500 kg/ha): 6.0; Preemergence herbicidal rating ABUTH ([4]; Rate 0.2500 kg/ha): 9.0; Preemergence herbicidal rating GALAP (GALAP (Galium aparine); Rate 0.2500 kg/ha): 7.0
C=CC1COC(c2nsc3ccc(-n4c(=O)cc(C(F)(F)F)n(C)c4=O)cc23)O1 (stereo not drawn) [Compound 76, 1-methyl-6-(trifluoromethyl)-3-[3-(4-vinyl-1,3-dioxolan-2-yl)-1,2-benzisothiazol-5-yl]uracil] | 7.0 | 8.0 | 8.0 | 8.5 | 8.5 | 9.0 | 3.0 | 3.5 | 7.5 | 9.0 | 9.0 | 9.0 | 4.0 | 5.0 | 9.0 | 9.0 | 9.0 | 9.0 | 7.0 | 9.0 | Preemergence herbicidal rating GLXMAW ([3]; Rate 0.2500 kg/ha): 9.0; Preemergence herbicidal rating ABUTH ([4]; Rate 0.2500 kg/ha): 9.0; Preemergence herbicidal rating GALAP (GALAP (Galium aparine); Rate 0.2500 kg/ha): 9.0
C[C@@H]1C[C@H](C)OC(c2nsc3cc(F)c(-n4c(=O)cc(C(F)(F)F)n(C)c4=O)cc23)O1 (stereo partly drawn) [Compound 67, 3-[3-[(4R,6S)-4,6-dimethyl-m-dioxan-2-yl]-6-fluoro-1,2-benzisothiazol-5-yl]-1-methyl-6-(trifluoromethyl)uracil] | 9.0 | 9.0 | – | 9.0 | 9.0 | – | 4.0 | 4.0 | 9.0 | 9.0 | 9.0 | 9.0 | 9.0 | 9.0 | 9.0 | 9.0 | 9.0 | 9.0 | 8.0 | 9.0 | –
